Source: PubChem BioAssay (NCI)
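Grown in 96-well plates, cells were treated for 48 hours with each compound at five concentrations. Insufficient inhibition: endpoint recorded as highest concentration tested. GI50 marks 50% less growth. TGI denotes the concentration required for complete inhibition of growth.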

Experiments:
Experiment in all cases: DTP human tumour cell line panel, 48 h
SNB-19 CNS = system: SNB-19 CNS
OVCAR-8 ovarian = system: OVCAR-8 ovarian
MDA-MB-435 = system: MDA-MB-435
CAKI-1 renal = system: CAKI-1 renal
HCC-2998 colon = system: HCC-2998 colon
SK-OV-3 ovarian = system: SK-OV-3 ovarian
SF-268 CNS = system: SF-268 CNS
SK-MEL-28 melanoma = system: SK-MEL-28 melanoma
SF-539 CNS = system: SF-539 CNS
A549 NSCLC = system: A549 NSCLC
OVCAR-5 ovarian = system: OVCAR-5 ovarian
UO-31 renal = system: UO-31 renal
ACHN renal = system: ACHN renal
UACC-62 melanoma = system: UACC-62 melanoma
SN12C renal = system: SN12C renal
HT29 colon = system: HT29 colon
SNB-75 CNS = system: SNB-75 CNS
NCI-H460 lung = system: NCI-H460 lung
CCRF-CEM leukemia = system: CCRF-CEM leukemia
SK-MEL-5 melanoma = system: SK-MEL-5 melanoma
UACC-257 melanoma = system: UACC-257 melanoma
HL-60(TB) leukemia = system: HL-60(TB) leukemia
COLO 205 colon = system: COLO 205 colon
SK-MEL-2 melanoma = system: SK-MEL-2 melanoma
NCI-H23 lung = system: NCI-H23 lung
A498 renal = system: A498 renal
K-562 leukemia = system: K-562 leukemia
TK-10 renal = system: TK-10 renal
RXF 393 renal = system: RXF 393 renal
OVCAR-4 ovarian = system: OVCAR-4 ovarian
IGROV1 ovarian = system: IGROV1 ovarian
LOX IMVI melanoma = system: LOX IMVI melanoma
BT-549 breast = system: BT-549 breast
M14 melanoma = system: M14 melanoma
PC-3 prostate = system: PC-3 prostate
KM12 colon = system: KM12 colon
T-47D breast = system: T-47D breast
MCF7 breast = system: MCF7 breast
HOP-62 NSCLC = system: HOP-62 NSCLC
U251 CNS = system: U251 CNS
HCT-15 colon = system: HCT-15 colon
HOP-92 NSCLC = system: HOP-92 NSCLC
NCI/ADR-RES ovarian = system: NCI/ADR-RES ovarian
HS 578T breast = system: HS 578T breast
SW-620 colon = system: SW-620 colon
MOLT-4 leukemia = system: MOLT-4 leukemia
NCI-H522 lung = system: NCI-H522 lung
RPMI-8226 leukemia = system: RPMI-8226 leukemia
DU-145 prostate = system: DU-145 prostate
HCT-116 colon = system: HCT-116 colon
MDA-MB-231 breast = system: MDA-MB-231 breast
MALME-3M melanoma = system: MALME-3M melanoma
OVCAR-3 ovarian = system: OVCAR-3 ovarian
NCI-H226 lung = system: NCI-H226 lung
786-0 renal = system: 786-0 renal

In the case of `O=c1c2ccc3cccc4c(=O)c5ccc6cccc1c6c5-c2c34`, the GI50 (SNB-19 CNS) was greater than 50 µM, the TGI (SNB-19 CNS) was greater than 50 µM and the GI50 (OVCAR-8 ovarian) was greater than 50 µM. For the same compound, the TGI (OVCAR-8 ovarian) was greater than 50 µM, the GI50 (MDA-MB-435) was greater than 50 µM and the TGI (MDA-MB-435) was greater than 50 µM. For the same compound, the GI50 (CAKI-1 renal) was greater than 50 µM, the TGI (CAKI-1 renal) was greater than 50 µM and the GI50 (HCC-2998 colon) was greater than 50 µM. The TGI (HCC-2998 colon) was greater than 50 µM, the GI50 (SK-OV-3 ovarian) was greater than 50 µM and the TGI (SK-OV-3 ovarian) was greater than 50 µM. For the same compound, the GI50 (SF-268 CNS) was greater than 50 µM, the TGI (SF-268 CNS) was greater than 50 µM and the GI50 (SK-MEL-28 melanoma) was greater than 50 µM. For the same compound, the TGI (SK-MEL-28 melanoma) was greater than 50 µM, the GI50 (SF-539 CNS) was greater than 50 µM and the TGI (SF-539 CNS) was greater than 50 µM. For the same compound, the GI50 (A549 NSCLC) was greater than 50 µM, the TGI (A549 NSCLC) was greater than 50 µM and the GI50 (OVCAR-5 ovarian) was greater than 50 µM. For the same compound, the TGI (OVCAR-5 ovarian) was greater than 50 µM, the GI50 (UO-31 renal) was greater than 50 µM and the TGI (UO-31 renal) was greater than 50 µM. It also gave a GI50 (ACHN renal) greater than 50 µM, a TGI (ACHN renal) greater than 50 µM and a GI50 (UACC-62 melanoma) greater than 50 µM. It also gave a TGI (UACC-62 melanoma) greater than 50 µM, a GI50 (SN12C renal) greater than 50 µM and a TGI (SN12C renal) greater than 50 µM. The GI50 (HT29 colon) was greater than 50 µM, the TGI (HT29 colon) was greater than 50 µM and the GI50 (SNB-75 CNS) was greater than 50 µM. The TGI (SNB-75 CNS) was greater than 50 µM, the GI50 (NCI-H460 lung) was greater than 50 µM and the TGI (NCI-H460 lung) was greater than 50 µM. The GI50 (CCRF-CEM leukemia) was greater than 50 µM, the TGI (CCRF-CEM leukemia) was greater than 50 µM and the GI50 (SK-MEL-5 melanoma) was greater than 50 µM. For the same compound, the TGI (SK-MEL-5 melanoma) was greater than 50 µM, the GI50 (UACC-257 melanoma) was greater than 50 µM and the TGI (UACC-257 melanoma) was greater than 50 µM. It also gave a GI50 (HL-60(TB) leukemia) greater than 50 µM, a TGI (HL-60(TB) leukemia) greater than 50 µM and a GI50 (COLO 205 colon) greater than 50 µM. It also gave a TGI (COLO 205 colon) greater than 50 µM, a GI50 (SK-MEL-2 melanoma) greater than 50 µM and a TGI (SK-MEL-2 melanoma) greater than 50 µM. It also gave a GI50 (NCI-H23 lung) greater than 50 µM, a TGI (NCI-H23 lung) greater than 50 µM and a GI50 (A498 renal) greater than 50 µM. For the same compound, the TGI (A498 renal) was greater than 50 µM, the GI50 (K-562 leukemia) was greater than 50 µM and the TGI (K-562 leukemia) was greater than 50 µM. The GI50 (TK-10 renal) was greater than 50 µM, the TGI (TK-10 renal) was greater than 50 µM and the GI50 (RXF 393 renal) was greater than 50 µM. For the same compound, the TGI (RXF 393 renal) was greater than 50 µM, the GI50 (OVCAR-4 ovarian) was greater than 50 µM and the TGI (OVCAR-4 ovarian) was greater than 50 µM. The GI50 (IGROV1 ovarian) was greater than 50 µM, the TGI (IGROV1 ovarian) was greater than 50 µM and the GI50 (LOX IMVI melanoma) was greater than 50 µM. For the same compound, the TGI (LOX IMVI melanoma) was greater than 50 µM, the GI50 (BT-549 breast) was greater than 50 µM and the TGI (BT-549 breast) was greater than 50 µM. It also gave a GI50 (M14 melanoma) greater than 50 µM, a TGI (M14 melanoma) greater than 50 µM and a GI50 (PC-3 prostate) greater than 50 µM. The TGI (PC-3 prostate) was greater than 50 µM, the GI50 (KM12 colon) was greater than 50 µM and the TGI (KM12 colon) was greater than 50 µM. The GI50 (T-47D breast) was greater than 50 µM, the TGI (T-47D breast) was greater than 50 µM and the GI50 (MCF7 breast) was greater than 50 µM. The TGI (MCF7 breast) was greater than 50 µM, the GI50 (HOP-62 NSCLC) was greater than 50 µM and the TGI (HOP-62 NSCLC) was greater than 50 µM. It also gave a GI50 (U251 CNS) greater than 50 µM, a TGI (U251 CNS) greater than 50 µM and a GI50 (HCT-15 colon) greater than 50 µM. It also gave a TGI (HCT-15 colon) greater than 50 µM, a GI50 (HOP-92 NSCLC) greater than 50 µM and a TGI (HOP-92 NSCLC) greater than 50 µM. It also gave a GI50 (NCI/ADR-RES ovarian) greater than 50 µM, a TGI (NCI/ADR-RES ovarian) greater than 50 µM and a GI50 (HS 578T breast) greater than 50 µM. For the same compound, the TGI (HS 578T breast) was greater than 50 µM, the GI50 (SW-620 colon) was greater than 50 µM and the TGI (SW-620 colon) was greater than 50 µM. The GI50 (MOLT-4 leukemia) was greater than 50 µM, the TGI (MOLT-4 leukemia) was greater than 50 µM and the GI50 (NCI-H522 lung) was greater than 50 µM. For the same compound, the TGI (NCI-H522 lung) was greater than 50 µM, the GI50 (RPMI-8226 leukemia) was greater than 50 µM and the TGI (RPMI-8226 leukemia) was greater than 50 µM. The GI50 (DU-145 prostate) was greater than 50 µM, the TGI (DU-145 prostate) was greater than 50 µM and the GI50 (HCT-116 colon) was greater than 50 µM. For the same compound, the TGI (HCT-116 colon) was greater than 50 µM, the GI50 (MDA-MB-231 breast) was greater than 50 µM and the TGI (MDA-MB-231 breast) was greater than 50 µM. The GI50 (MALME-3M melanoma) was greater than 50 µM, the TGI (MALME-3M melanoma) was greater than 50 µM and the GI50 (OVCAR-3 ovarian) was greater than 50 µM. It also gave a TGI (OVCAR-3 ovarian) greater than 50 µM, a GI50 (NCI-H226 lung) greater than 50 µM and a TGI (NCI-H226 lung) greater than 50 µM. It also gave a GI50 (786-0 renal) greater than 50 µM and a TGI (786-0 renal) greater than 50 µM.
